# Laboratory results reported in ChEMBL document CHEMBL1201862, “PubChem BioAssay data set” (2004).
# Activity calls are given as the source filed them.
# Legend:
# HeLa = experiment: HeLa cell cytotoxicity, dose response, cytotoxicity control, 24 h, cherry-picked samples (AID 504726); assay type: functional, cell-based; conditions: Homo sapiens;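 further: potency for cytotoxicity as loss of luminescence signal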
# ORF 73 = biological target: T1, ORF 73 (Human herpesvirus 8, UniProt O40947); experiment: inhibitors of C-LANA binding to LBS DNA, dose response, biochemical, fluorescence polarization, cherry-picked samples (AID 504725); set-up: species or system Human gammaherpesvirus 8;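 further: fluorescence polarization of a labeled DNA duplex reporting LANA DNA binding; potency is for inhibitors that block LANA binding to the DNA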
# T1 sequence (O40947 whole entry): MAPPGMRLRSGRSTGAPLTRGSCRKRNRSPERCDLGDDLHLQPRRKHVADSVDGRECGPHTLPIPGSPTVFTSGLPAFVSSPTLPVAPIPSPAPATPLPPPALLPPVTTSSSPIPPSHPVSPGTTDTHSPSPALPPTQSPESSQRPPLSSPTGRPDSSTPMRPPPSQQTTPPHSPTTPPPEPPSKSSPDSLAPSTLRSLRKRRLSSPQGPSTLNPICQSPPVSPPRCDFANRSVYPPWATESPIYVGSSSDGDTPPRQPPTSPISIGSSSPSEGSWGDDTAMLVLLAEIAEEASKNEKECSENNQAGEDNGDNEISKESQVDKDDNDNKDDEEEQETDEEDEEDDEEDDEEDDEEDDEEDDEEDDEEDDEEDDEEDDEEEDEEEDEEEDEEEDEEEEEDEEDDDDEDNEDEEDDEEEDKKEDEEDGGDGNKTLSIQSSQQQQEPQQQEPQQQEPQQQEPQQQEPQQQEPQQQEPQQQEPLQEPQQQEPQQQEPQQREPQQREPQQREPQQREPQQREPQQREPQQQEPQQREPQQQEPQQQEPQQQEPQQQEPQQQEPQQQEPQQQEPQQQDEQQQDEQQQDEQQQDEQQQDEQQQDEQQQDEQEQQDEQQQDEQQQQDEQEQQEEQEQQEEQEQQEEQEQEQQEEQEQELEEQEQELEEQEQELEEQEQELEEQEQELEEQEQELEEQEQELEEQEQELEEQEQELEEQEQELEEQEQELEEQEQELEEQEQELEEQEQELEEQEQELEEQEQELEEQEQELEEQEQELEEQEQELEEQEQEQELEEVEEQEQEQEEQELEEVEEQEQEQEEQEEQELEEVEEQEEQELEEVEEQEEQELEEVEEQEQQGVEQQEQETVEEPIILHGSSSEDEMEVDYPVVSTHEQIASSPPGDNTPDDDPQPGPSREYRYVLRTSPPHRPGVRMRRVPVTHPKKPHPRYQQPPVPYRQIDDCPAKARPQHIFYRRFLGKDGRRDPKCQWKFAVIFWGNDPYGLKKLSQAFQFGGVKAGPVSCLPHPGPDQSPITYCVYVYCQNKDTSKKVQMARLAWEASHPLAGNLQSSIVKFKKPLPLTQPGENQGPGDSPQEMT
# [1] = biological target: Eukaryotic translation initiation factor 4E (Mus musculus, UniProt P63073); experiment: eIF4E–eIF4G protein interaction inhibitors, dose response, biochemical, TR-FRET (AID 855); assay type: functional;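 further: potency for disrupting eIF4E binding to eIF4GI seen as loss of FRET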
# Insulin-degrading enzyme [2] = biological target: T2, Insulin-degrading enzyme (Homo sapiens, UniProt P14735); experiment: activators of recombinant IDE enzyme, dose response, counter-screen for IDE activator project, biochemical, fluorescence polarization (AID 588681)
# T2 sequence (P14735 whole entry): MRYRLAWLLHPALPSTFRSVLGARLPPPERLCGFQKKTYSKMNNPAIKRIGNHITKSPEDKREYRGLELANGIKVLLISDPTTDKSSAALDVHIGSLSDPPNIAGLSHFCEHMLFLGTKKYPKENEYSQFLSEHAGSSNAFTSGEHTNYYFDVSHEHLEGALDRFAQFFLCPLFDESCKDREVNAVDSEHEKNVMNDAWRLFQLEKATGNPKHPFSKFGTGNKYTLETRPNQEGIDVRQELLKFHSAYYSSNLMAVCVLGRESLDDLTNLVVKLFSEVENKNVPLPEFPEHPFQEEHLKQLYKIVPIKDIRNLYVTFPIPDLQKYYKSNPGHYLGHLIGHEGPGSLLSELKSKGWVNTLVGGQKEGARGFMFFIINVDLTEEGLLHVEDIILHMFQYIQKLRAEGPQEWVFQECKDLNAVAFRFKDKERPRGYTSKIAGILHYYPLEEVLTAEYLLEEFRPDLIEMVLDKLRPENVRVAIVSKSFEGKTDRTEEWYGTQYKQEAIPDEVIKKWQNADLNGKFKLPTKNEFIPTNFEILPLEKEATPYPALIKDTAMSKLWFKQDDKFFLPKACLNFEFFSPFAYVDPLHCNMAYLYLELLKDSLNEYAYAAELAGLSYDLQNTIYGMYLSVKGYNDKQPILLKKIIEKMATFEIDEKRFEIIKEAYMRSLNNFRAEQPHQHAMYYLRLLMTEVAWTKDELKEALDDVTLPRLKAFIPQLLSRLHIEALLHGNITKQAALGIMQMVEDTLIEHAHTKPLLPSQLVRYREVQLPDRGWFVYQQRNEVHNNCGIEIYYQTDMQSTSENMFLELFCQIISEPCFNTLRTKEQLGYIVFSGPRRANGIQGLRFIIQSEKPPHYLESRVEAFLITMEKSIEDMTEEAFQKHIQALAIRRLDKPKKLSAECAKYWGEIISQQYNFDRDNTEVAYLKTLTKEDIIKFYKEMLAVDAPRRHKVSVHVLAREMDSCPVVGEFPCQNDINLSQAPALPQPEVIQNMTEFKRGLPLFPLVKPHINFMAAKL
# Keap1/Nrf2 = Keap1/Nrf2 (Homo sapiens, UniProt Q14145); experiment: Keap1-Nrf2 protein-protein interaction inhibitors, dose response, biochemical, fluorescence polarization, cherry-picked samples (AID 588683)
# Insulin-degrading enzyme [3] = biological target: T2, Insulin-degrading enzyme; experiment: activators of endogenous IDE in HEK cells, dose response, cell-based, fluorescence polarization (AID 588439); assay type: functional
# HEK293 [4] = experiment: HEK cell cytotoxicity by LDH release, dose response, cytotoxicity control for IDE activator project, fluorescence, HEK cells (AID 588440); assay type: functional, cell-based; conditions: Homo sapiens;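 further: cytotoxicity by LDH release measuring loss of membrane integrity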
# HEK293 [5] = experiment: optical interference in Abeta FP readout, dose response, artefact control for IDE activator project, biochemical, fluorescence polarization (AID 588442); assay type: functional, cell-based; conditions: Homo sapiens
# [6] = biological target: T3, Small ubiquitin-related modifier 2 (Homo sapiens, UniProt P61956); experiment: SUMO2–SIM peptide binding inhibitors, dose response, selectivity assay for SUMO1 interaction inhibitor project, biochemical, fluorescence polarization, uHTS hits (AID 624385); assay type: functional; conditions: read-out: IC50_Mean
# [7] = biological target: T4, Small ubiquitin-related modifier 1 (Homo sapiens, UniProt P63165); experiment: inhibitors of SUMO1 peptide binding, dose response, biochemical, fluorescence polarization, uHTS hits (AID 624382); assay type: functional; conditions: read-out: IC50_Mean
# [8] = biological target: T3, Small ubiquitin-related modifier 2; experiment: inhibitors of SUMO2 protein-protein interaction, dose response, selectivity assay for SUMO1 interaction inhibitor project, biochemical, FRET, human SUMO2, uHTS hits (AID 624384); assay type: functional; conditions: read-out: IC50_Mean
# [9] = biological target: T4, Small ubiquitin-related modifier 1; experiment: inhibitors of SUMO1 partner interactions, dose response, biochemical, FRET (AID 624383); assay type: functional; conditions: read-out: IC50_Mean
# Caspase-6 = biological target: T5, Caspase-6 (Homo sapiens, UniProt P55212); experiment: human caspase-6 inhibitors, dose response, biochemical, VEID-R110 fluorescence, cherry-pick (AID 720632)
# T5 sequence (P55212 whole entry): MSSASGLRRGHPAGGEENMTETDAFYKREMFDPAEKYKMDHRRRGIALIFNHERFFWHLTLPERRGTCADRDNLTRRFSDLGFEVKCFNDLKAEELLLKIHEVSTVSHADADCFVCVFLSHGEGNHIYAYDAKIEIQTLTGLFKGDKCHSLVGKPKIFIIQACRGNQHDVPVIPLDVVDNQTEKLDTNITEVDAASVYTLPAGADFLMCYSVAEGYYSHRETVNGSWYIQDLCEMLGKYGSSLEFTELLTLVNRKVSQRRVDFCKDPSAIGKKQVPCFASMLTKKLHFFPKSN
# [10] = biological target: T6, RNA-binding protein pos-1 (Caenorhabditis elegans, UniProt G5EF15); experiment: inhibitors of POS-1/mex-3 RNA binding, dose response, biochemical, fluorescence polarization (AID 1964);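 further: purified POS-1 fused to maltose binding protein made in E. coli; potency of compounds blocking POS-1 binding to fluorescent RNA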
# T6 sequence (G5EF15 whole entry): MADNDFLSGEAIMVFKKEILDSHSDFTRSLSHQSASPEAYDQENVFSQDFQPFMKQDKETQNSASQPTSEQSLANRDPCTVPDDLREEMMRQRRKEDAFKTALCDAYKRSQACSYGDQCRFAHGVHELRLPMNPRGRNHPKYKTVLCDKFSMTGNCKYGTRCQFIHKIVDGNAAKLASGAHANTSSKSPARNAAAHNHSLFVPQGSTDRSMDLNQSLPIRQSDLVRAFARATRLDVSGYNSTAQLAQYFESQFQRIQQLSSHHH
# [11] = biological target: T7, Zinc finger protein mex-5 (Caenorhabditis elegans, UniProt Q9XUB2); experiment: MEX-5/TCR-2 RNA interaction inhibitors, dose response, biochemical, C. elegans, fluorescence polarization (AID 1960)
# T7 sequence (Q9XUB2 whole entry): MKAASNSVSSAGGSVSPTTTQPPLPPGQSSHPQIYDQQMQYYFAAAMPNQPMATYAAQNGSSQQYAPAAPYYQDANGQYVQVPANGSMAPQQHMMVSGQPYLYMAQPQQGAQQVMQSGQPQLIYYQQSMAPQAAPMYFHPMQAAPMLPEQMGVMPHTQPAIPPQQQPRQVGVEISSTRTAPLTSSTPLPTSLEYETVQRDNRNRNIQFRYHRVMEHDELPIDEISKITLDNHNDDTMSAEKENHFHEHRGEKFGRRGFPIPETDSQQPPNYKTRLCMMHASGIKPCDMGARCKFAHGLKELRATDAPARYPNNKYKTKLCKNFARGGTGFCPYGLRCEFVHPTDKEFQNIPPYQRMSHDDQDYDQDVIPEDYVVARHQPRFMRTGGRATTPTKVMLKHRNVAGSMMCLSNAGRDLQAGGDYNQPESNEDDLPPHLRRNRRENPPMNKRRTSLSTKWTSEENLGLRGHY
# [12] = biological target: T8, Heat shock factor protein 1 (Mus musculus, UniProt P38532); experiment: inhibition of MG132-induced HSE-luciferase signal, confirmation, cell-based, NIH3T3, luminescence, dose retest (AID 2382); assay type: functional;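 further: NIH3T3 fibroblasts with HSF1-driven luciferase reporter stressed by proteasome inhibitor MG132; luminescence from HSF1-driven luciferase expression after 8 hours of MG132 stress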
# T8 sequence (P38532 whole entry): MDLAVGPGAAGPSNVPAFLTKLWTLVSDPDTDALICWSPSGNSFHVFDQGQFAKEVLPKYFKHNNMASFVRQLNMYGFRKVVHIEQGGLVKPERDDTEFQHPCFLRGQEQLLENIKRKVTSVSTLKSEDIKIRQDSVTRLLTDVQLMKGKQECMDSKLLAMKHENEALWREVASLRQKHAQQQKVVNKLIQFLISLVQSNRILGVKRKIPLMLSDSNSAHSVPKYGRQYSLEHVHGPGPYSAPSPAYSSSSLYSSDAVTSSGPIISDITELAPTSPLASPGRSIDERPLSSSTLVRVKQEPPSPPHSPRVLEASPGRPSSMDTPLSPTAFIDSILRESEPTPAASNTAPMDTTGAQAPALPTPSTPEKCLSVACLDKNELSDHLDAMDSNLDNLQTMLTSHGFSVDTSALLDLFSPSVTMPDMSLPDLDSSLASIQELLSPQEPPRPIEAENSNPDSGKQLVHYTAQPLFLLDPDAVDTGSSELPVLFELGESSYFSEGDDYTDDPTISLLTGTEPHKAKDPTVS
# [13] = biological target: G-protein coupled receptor 55 (Homo sapiens, UniProt Q9Y2T6); experiment: GPR55 agonists via beta-arrestin recruitment, primary screen, imaging, U2OS cells, beta-arrestin-GFP redistribution (AID 1961); assay type: functional
# [14] = Luminescence Cell-Based Dose Retest to Confirm Inhibitors of Cancer Stem Cells. [Related pubchem assays (depositor defined):AID2717, AID2721]; assay type: functional; conditions: Homo sapiens
# [15] = miR-122 activators in hepatoma reporter cells, dose response, cell-based, Huh7 psiCHECK-miR122, Renilla luciferase, cherry-picked (AID 651956); assay type: functional;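 further: huh7 hepatoma cells stably carrying a psiCHECK-2 miR-122 sensor plasmid; renilla luciferase signal reporting endogenous miR-122 activity after 48 h compound exposure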
# [16] = HEK293T cytotoxicity, dose response, cytotoxicity control for miR-122 modulator project, cell-based, inhibitor set, cherry-pick, set 2 (AID 720697); assay type: functional
# [17] = HEK293T cytotoxicity, dose response, cytotoxicity control for miR-122 modulator project, cell-based, activator set, cherry-pick (AID 720690); assay type: functional;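 further: HEK293T human cells scored for general mammalian cytotoxicity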
# [18] = biological target: T9, RNA-editing ligase 1, mitochondrial (Trypanosoma brucei brucei, UniProt P86926); experiment: TbREL1 ligase inhibitors, dose response, biochemical, fluorescence, Trypanosoma brucei (AID 1117295); assay type: functional
# T9 sequence (P86926 whole entry): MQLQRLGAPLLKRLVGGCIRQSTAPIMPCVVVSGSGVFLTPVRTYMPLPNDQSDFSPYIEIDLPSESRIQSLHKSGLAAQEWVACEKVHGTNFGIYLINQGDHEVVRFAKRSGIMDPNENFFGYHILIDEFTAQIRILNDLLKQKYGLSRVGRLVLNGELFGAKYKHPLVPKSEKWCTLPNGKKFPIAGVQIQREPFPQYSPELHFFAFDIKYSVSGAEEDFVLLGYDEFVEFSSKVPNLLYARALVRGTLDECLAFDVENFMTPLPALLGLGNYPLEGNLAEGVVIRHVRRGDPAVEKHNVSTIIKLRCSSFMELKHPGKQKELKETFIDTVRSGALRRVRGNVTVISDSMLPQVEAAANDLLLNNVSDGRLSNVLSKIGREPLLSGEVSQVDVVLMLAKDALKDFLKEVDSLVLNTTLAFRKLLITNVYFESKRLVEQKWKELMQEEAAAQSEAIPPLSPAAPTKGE
# T4 sequence (P63165 whole entry): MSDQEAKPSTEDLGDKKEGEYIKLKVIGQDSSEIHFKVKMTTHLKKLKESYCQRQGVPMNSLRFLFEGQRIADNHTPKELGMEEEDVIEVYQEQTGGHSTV
# T3 sequence (P61956 whole entry): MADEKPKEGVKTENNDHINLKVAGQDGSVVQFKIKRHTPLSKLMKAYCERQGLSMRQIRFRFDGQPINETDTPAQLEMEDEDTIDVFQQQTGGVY
# Sequence of G-protein coupled receptor 55 (Q9Y2T6 whole entry): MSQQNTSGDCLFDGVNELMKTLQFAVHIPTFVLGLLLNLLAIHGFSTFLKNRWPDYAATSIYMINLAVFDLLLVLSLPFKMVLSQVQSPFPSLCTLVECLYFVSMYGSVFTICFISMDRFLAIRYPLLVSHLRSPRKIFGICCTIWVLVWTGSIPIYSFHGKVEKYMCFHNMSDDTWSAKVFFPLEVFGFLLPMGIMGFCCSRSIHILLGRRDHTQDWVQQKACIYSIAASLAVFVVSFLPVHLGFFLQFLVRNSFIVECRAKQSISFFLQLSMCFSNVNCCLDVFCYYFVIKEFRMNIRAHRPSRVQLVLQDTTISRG
# Sequence of Eukaryotic translation initiation factor 4E (P63073 whole entry): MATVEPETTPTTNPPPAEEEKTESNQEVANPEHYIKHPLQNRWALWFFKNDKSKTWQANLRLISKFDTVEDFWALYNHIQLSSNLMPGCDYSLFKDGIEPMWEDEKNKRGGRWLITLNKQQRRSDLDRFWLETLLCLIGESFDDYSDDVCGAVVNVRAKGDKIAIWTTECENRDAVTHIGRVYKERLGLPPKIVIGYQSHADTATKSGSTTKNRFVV
# Sequence of Keap1/Nrf2 (Q16236 whole entry): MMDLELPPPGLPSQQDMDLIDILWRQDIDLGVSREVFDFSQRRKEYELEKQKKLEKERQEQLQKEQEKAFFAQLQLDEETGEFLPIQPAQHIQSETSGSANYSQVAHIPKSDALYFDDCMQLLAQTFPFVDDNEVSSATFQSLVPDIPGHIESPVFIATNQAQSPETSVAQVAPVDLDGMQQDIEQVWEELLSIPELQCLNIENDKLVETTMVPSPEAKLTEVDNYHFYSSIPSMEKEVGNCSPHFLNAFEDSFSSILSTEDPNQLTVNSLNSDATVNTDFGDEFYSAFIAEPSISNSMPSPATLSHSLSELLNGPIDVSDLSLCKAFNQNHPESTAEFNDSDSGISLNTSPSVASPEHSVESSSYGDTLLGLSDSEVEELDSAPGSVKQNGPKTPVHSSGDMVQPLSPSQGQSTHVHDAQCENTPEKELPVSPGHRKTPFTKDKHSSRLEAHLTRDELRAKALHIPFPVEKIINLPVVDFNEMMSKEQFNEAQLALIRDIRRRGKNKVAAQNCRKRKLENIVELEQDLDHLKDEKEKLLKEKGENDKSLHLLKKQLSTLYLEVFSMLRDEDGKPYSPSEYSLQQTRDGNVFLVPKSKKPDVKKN
# Sequence of Keap1/Nrf2 (Q14145 whole entry): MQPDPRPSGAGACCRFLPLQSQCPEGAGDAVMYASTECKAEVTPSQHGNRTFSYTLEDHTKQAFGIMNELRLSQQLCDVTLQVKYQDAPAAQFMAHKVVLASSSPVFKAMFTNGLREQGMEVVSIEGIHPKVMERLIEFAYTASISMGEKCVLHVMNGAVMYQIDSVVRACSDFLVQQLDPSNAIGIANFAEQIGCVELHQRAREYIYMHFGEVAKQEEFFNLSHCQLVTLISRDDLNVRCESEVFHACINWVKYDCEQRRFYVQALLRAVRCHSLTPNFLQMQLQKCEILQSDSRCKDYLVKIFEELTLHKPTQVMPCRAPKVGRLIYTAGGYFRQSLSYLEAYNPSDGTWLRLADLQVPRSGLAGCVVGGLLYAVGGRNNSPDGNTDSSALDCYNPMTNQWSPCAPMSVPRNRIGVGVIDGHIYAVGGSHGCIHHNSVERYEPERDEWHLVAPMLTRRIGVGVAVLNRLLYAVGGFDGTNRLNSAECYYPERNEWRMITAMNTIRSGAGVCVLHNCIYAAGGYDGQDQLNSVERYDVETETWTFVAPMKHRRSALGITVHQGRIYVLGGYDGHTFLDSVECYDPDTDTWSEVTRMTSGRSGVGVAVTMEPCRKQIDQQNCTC
smiles,measurement,setting,value
Cc1cc2nc3c(=O)[nH]c(=O)[nH]c3nc2c([N+](=O)[O-])c1N,AC50,HeLa,150 µM (active)
same,AC50,ORF 73,3.99 µM (active)
same,IC50,[1],50 µM (inactive)
same,EC50,Insulin-degrading enzyme [2],> 54.7 µM (inactive)
same,AC50,Keap1/Nrf2,1.78 µM (active)
same,EC50,Insulin-degrading enzyme [3],> 54.7 µM (inactive)
same,IC50,HEK293 [4],> 89.3 µM (inactive)
same,EC50,HEK293 [5],32.1 µM (inactive)
same,IC50,[6],2.48 µM (active)
same,IC50,[7],2.33 µM (active)
same,IC50,[8],> 66 µM (inactive)
same,IC50,[9],51.7 µM (inactive)
same,AC50,Caspase-6,4.58 µM (active)
COc1cc2c(cc1OC)C(c1ccc(-c3ccc(Cl)c(Cl)c3)o1)=NCC2,EC50,[10],> 300 µM (inconclusive)
same,EC50,[11],> 300 µM (not active)
same,EC50,[12],> 195 µM (not active)
same,EC50,[13],> 32 µM (inactive)
same,AC50,[14],4.34 µM (active)
same,AC50,[15],25.7 µM (active)
same,AC50,[16],8.91 µM (active)
same,AC50,[17],9.82 µM (active)
same,IC50,[18],35.8 µM (inactive)
